#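 Interpolation was linear, between the two tested concentrations surrounding the appropriate level; five concentrations were tested over 48 hours in 96-well plates. GI50 is the concentration that inhibits growth by half.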 Calls of active or inactive are those of the source. No stated cut-off is given here; in the data, active = GI50 up to about 1.1 µM and inactive = higher.
# What was measured:
# Experiment in all cases: DTP human tumour cell line panel, 48 h
# [1] = system: 786-0
# [2] = system: A498
# [3] = system: A549
# [4] = system: ACHN
# [5] = system: CAKI-1
# [6] = system: CCRF-CEM
# [7] = system: COLO 205
# [8] = system: DLD-1
# [9] = system: DMS-114
# [10] = system: EKVX
# [11] = system: HCC 2998
# [12] = system: HCT-116
# [13] = system: HL-60
# [14] = system: HOP-62
# [15] = system: HOP-92
# [16] = system: HT-29
# [17] = system: IGROV-1
# [18] = system: K562
# [19] = system: KM-20L2
# [20] = system: KM12
# [21] = system: LOX IMVI
# [22] = system: LXFL 529
# [23] = system: M14
# [24] = system: M19-MEL
# [25] = system: MOLT-4
# [26] = system: Malme-3M
# [27] = system: NCI-H226
# [28] = system: NCI-H23
# [29] = system: NCI-H460
# [30] = system: NCI-H522
# [31] = system: OVCAR-3
# [32] = system: OVCAR-4
# [33] = system: OVCAR-5
# [34] = system: OVCAR-8
# [35] = system: RPMI-8226
# [36] = system: RXF 393
# [37] = system: RXF 631
# [38] = system: SF-268
# [39] = system: SF-295
# [40] = system: SF-539
# [41] = system: SK-MEL-28
# [42] = system: SK-MEL-2
# [43] = system: SK-MEL-5
# [44] = system: SK-OV-3
# [45] = system: SN12C
# [46] = system: SNB-75
# [47] = system: SNB-78
# [48] = system: SW-620
# [49] = system: TK-10
# [50] = system: U-251
# [51] = system: UACC-257
# [52] = system: UACC-62
# [53] = system: UO-31
# [54] = system: XF498
# [55] = system: DMS-273
# [56] = system: HCT-15
# [57] = system: SNB-19
smiles,measurement,setting,value
O=c1c2cc(Br)cc(Br)c2nc(CCCl)n1CCO,GI50,[1],> 100 µM (inactive)
same,GI50,[2],25 µM (inactive)
same,GI50,[3],> 100 µM (inactive)
same,GI50,[4],60.7 µM (inactive)
same,GI50,[5],91 µM (inactive)
same,GI50,[6],41 µM (inactive)
same,GI50,[7],> 100 µM (inactive)
same,GI50,[8],> 100 µM (inactive)
same,GI50,[9],42.4 µM (inactive)
same,GI50,[10],73.8 µM (inactive)
same,GI50,[11],> 100 µM (inactive)
same,GI50,[12],> 100 µM (inactive)
same,GI50,[13],37.8 µM (inactive)
same,GI50,[14],> 100 µM (inactive)
same,GI50,[15],28.8 µM (inactive)
same,GI50,[16],> 100 µM (inactive)
same,GI50,[17],75.9 µM (inactive)
same,GI50,[18],52.5 µM (inactive)
same,GI50,[19],> 100 µM (inactive)
same,GI50,[20],> 100 µM (inactive)
same,GI50,[21],> 100 µM (inactive)
same,GI50,[22],77.6 µM (inactive)
same,GI50,[23],97.7 µM (inactive)
same,GI50,[24],94.8 µM (inactive)
same,GI50,[25],46.9 µM (inactive)
same,GI50,[26],52.1 µM (inactive)
same,GI50,[27],39 µM (inactive)
same,GI50,[28],49.9 µM (inactive)
same,GI50,[29],> 100 µM (inactive)
same,GI50,[30],62.4 µM (inactive)
same,GI50,[31],52.2 µM (inactive)
same,GI50,[32],52.8 µM (inactive)
same,GI50,[33],> 100 µM (inactive)
same,GI50,[34],> 100 µM (inactive)
same,GI50,[35],34.8 µM (inactive)
same,GI50,[36],47.4 µM (inactive)
same,GI50,[37],> 100 µM (inactive)
same,GI50,[38],47.1 µM (inactive)
same,GI50,[39],88.3 µM (inactive)
same,GI50,[40],81.3 µM (inactive)
same,GI50,[41],52 µM (inactive)
same,GI50,[42],> 100 µM (inactive)
same,GI50,[43],53.2 µM (inactive)
same,GI50,[44],58.7 µM (inactive)
same,GI50,[45],97.5 µM (inactive)
same,GI50,[46],22.6 µM (inactive)
same,GI50,[47],> 100 µM (inactive)
same,GI50,[48],> 100 µM (inactive)
same,GI50,[49],> 100 µM (inactive)
same,GI50,[50],67.1 µM (inactive)
same,GI50,[51],72.9 µM (inactive)
same,GI50,[52],60.8 µM (inactive)
same,GI50,[53],34.7 µM (inactive)
same,GI50,[54],41.7 µM (inactive)
CN1C/C(=C\C=C\c2ccccc2)C(=O)/C(=C/C=C/c2ccccc2)C1,GI50,[1],87.3 µM (inactive)
same,GI50,[2],> 100 µM (inactive)
same,GI50,[3],> 100 µM (inactive)
same,GI50,[4],> 100 µM (inactive)
same,GI50,[5],> 100 µM (inactive)
same,GI50,[6],35.9 µM (inactive)
same,GI50,[7],> 100 µM (inactive)
same,GI50,[8],> 100 µM (inactive)
same,GI50,[9],> 100 µM (inactive)
same,GI50,[55],> 100 µM (inactive)
same,GI50,[10],> 100 µM (inactive)
same,GI50,[11],> 100 µM (inactive)
same,GI50,[12],> 100 µM (inactive)
same,GI50,[56],> 100 µM
same,GI50,[14],> 100 µM (inactive)
same,GI50,[16],> 100 µM (inactive)
same,GI50,[17],> 100 µM (inactive)
same,GI50,[18],> 100 µM (inactive)
same,GI50,[19],> 100 µM (inactive)
same,GI50,[20],> 100 µM (inactive)
same,GI50,[21],> 100 µM (inactive)
same,GI50,[22],78.7 µM (inactive)
same,GI50,[23],> 100 µM (inactive)
same,GI50,[24],> 100 µM (inactive)
same,GI50,[25],40.3 µM (inactive)
same,GI50,[26],> 100 µM (inactive)
same,GI50,[27],> 100 µM (inactive)
same,GI50,[28],> 100 µM (inactive)
same,GI50,[29],> 100 µM (inactive)
same,GI50,[30],54 µM (inactive)
same,GI50,[31],> 100 µM (inactive)
same,GI50,[32],> 100 µM (inactive)
same,GI50,[33],> 100 µM (inactive)
same,GI50,[34],82.2 µM (inactive)
same,GI50,[35],> 100 µM (inactive)
same,GI50,[36],> 100 µM (inactive)
same,GI50,[37],> 100 µM (inactive)
same,GI50,[38],> 100 µM (inactive)
same,GI50,[39],> 100 µM (inactive)
same,GI50,[40],> 100 µM (inactive)
same,GI50,[41],> 100 µM (inactive)
same,GI50,[42],> 100 µM (inactive)
same,GI50,[43],> 100 µM (inactive)
same,GI50,[44],> 100 µM (inactive)
same,GI50,[45],> 100 µM (inactive)
same,GI50,[57],39.6 µM (inactive)
same,GI50,[46],> 100 µM (inactive)
same,GI50,[47],> 100 µM (inactive)
same,GI50,[48],> 100 µM (inactive)
same,GI50,[49],> 100 µM (inactive)
same,GI50,[50],> 100 µM (inactive)
same,GI50,[51],> 100 µM (inactive)
same,GI50,[52],> 100 µM (inactive)
same,GI50,[53],> 100 µM (inactive)
same,GI50,[54],> 100 µM (inactive)

# — ChEMBL document CHEMBL1201862, “PubChem BioAssay data set” (2004)
